According to patent publication US6599908B1, “Fused polycyclic 2-aminopyrimidine derivatives” (Celltech R & D Limited, priority 1996, dated 2003):

Structure (SMILES): COc1cc(Nc2ncc3c(n2)-c2ccccc2CCC3)cc(OC)c1OC [Example 6, N-(3,4,5-Trimethoxyphenyl)-6,7-dihydro-5H-benzo[6,7]cyclohepta[d]pyrimidine-2-amine]
- melting point: 201 to 202 °C
